Reference: patent US9822103B2, “Inhibitors of lysine methyl transferase” (priority 2013, dated 2017)

These compounds were tested against recombinant EZH2-641F complex (EZH2 Y641F/EED/SUZ12/RbAp48/AEBP2) (Homo sapiens (Human), UniProt Q15910, Y641F) (assay: EZH2 Histone Methyl Transferase Assay (scintillation proximity assay)). Conditions: 350 nM histone peptide substrate, 500 nM 3H-SAM, 3 hours room temperature.
Assay type: biochemical
In short: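 Radiometric SPA with EZH2 Y641F/EED/SUZ12/RbAp48/AEBP2 complex (5 nM pure or 15 nM in-house), 350 nM biotinylated K(Me2) histone peptide and 500 nM [3H]-SAM in Tris pH 9.0, 3 h at room temperature. Compounds were tested at eleven concentrations; EC50 came from non-linear regression.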

recombinant EZH2-641F complex (EZH2 Y641F/EED/SUZ12/RbAp48/AEBP2), sequence (Q15910 whole entry Y641F): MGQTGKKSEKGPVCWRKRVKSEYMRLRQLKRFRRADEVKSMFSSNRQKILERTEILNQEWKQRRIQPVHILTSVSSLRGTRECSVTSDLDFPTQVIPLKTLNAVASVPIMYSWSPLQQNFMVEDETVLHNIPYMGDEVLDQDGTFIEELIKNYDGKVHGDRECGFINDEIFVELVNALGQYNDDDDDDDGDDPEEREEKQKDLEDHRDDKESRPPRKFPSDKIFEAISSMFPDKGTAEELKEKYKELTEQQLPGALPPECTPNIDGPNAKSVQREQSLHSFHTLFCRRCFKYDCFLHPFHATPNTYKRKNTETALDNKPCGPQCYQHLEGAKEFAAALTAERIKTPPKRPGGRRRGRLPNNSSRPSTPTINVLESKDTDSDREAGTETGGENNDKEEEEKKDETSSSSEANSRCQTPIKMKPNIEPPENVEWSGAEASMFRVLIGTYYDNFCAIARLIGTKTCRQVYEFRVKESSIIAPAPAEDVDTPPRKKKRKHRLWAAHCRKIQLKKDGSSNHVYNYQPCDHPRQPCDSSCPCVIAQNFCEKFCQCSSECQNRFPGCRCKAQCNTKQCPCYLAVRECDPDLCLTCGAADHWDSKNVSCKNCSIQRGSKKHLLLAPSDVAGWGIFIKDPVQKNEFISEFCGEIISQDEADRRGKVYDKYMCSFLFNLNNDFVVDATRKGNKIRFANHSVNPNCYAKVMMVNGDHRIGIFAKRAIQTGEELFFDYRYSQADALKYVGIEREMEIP
recombinant EZH2-641F complex (EZH2 Y641F/EED/SUZ12/RbAp48/AEBP2), sequence (O75530 whole entry partner): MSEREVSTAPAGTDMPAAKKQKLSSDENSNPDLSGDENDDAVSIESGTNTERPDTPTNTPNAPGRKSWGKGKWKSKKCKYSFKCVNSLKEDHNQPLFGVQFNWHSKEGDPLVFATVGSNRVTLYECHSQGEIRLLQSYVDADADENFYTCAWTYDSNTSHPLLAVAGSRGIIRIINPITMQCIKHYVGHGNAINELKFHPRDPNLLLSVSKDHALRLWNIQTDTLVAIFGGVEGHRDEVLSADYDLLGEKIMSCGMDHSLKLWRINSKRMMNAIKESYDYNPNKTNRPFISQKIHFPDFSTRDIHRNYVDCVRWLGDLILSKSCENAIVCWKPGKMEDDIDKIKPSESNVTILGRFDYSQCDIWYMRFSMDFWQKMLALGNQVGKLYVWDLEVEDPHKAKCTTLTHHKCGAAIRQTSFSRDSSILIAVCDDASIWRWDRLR
recombinant EZH2-641F complex (EZH2 Y641F/EED/SUZ12/RbAp48/AEBP2), sequence (Q15022 whole entry partner): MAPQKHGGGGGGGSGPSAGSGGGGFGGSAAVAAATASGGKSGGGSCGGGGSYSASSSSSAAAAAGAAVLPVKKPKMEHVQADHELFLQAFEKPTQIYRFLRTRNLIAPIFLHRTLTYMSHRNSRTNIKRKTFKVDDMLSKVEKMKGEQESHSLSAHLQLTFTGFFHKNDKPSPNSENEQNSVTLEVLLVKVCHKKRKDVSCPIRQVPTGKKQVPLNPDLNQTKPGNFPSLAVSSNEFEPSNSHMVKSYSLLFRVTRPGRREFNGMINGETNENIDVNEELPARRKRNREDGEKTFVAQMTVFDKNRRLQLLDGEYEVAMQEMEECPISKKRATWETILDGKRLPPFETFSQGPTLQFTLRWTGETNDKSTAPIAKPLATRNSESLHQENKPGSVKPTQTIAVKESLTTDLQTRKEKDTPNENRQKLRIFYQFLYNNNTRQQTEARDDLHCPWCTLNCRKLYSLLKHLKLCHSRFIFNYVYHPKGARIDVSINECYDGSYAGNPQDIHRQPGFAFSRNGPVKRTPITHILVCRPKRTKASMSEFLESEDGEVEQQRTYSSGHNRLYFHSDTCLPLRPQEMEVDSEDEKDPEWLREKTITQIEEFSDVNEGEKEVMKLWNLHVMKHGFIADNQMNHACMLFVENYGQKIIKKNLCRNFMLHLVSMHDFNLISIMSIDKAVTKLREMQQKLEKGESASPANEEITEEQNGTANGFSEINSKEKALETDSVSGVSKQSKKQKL
recombinant EZH2-641F complex (EZH2 Y641F/EED/SUZ12/RbAp48/AEBP2), sequence (Q09028 whole entry partner): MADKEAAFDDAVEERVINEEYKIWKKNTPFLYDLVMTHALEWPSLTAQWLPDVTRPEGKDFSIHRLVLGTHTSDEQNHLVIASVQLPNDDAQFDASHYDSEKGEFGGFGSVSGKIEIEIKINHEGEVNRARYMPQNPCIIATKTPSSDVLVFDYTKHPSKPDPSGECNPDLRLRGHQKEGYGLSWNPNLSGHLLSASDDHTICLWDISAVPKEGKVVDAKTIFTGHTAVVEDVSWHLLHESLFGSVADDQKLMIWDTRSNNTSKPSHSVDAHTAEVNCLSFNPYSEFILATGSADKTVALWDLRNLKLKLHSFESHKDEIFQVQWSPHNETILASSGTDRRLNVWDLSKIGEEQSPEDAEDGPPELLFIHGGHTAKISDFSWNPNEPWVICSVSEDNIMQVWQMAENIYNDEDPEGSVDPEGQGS
recombinant EZH2-641F complex (EZH2 Y641F/EED/SUZ12/RbAp48/AEBP2), sequence (Q6ZN18 whole entry partner): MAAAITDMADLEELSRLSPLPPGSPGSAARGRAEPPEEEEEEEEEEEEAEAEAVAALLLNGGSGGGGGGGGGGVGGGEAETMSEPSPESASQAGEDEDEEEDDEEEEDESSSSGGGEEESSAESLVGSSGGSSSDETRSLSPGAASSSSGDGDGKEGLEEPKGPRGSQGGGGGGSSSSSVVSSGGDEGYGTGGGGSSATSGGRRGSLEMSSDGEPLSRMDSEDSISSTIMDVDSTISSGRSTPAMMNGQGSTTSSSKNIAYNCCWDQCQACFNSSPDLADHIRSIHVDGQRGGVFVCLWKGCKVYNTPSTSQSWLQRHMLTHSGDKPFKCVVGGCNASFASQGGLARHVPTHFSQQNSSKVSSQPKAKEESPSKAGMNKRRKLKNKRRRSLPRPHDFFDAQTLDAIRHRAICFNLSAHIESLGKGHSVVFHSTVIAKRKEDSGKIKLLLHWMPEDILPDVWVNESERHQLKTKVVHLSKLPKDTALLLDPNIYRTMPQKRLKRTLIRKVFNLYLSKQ

| IC50 | SMILES |
| --- | --- |
| > 1000 nM | Cc1cc(C)c(CNC(=O)c2cc(-c3ccc(N4CCNCC4)nc3)c3c(c2)C2(CCCC2)CO3)c(=O)[nH]1 [Example 77, N-((4,6-Dimethyl-2-oxo-1,2-dihydropyridin-3-yl)methyl)-7-(6-(piperazin-1-yl)pyridin-3-yl)-2H-spiro[benzofuran-3,1′-cyclopentane]-5-carboxamide] |
| > 1000 nM | Cc1cc(C)c(CNC(=O)c2cc(-c3ccc(CN4CCCCC4)cc3)c3c(c2)C2(CCCC2)CO3)c(=O)[nH]1 [Example 78, N-((4,6-Dimethyl-2-oxo-1,2-dihydropyridin-3-yl)methyl)-7-(4-(piperidin-1-ylmethyl)phenyl)-2H-spiro[benzofuran-3,1′-cyclopentane]-5-carboxamide] |
| > 1000 nM | Cc1cc(C)c(CNC(=O)c2cc(Br)c3c(c2)CC(C(C)C)O3)c(=O)[nH]1 (centres unmarked) [Example 79, 7-Bromo-N-((4,6-dimethyl-2-oxo-1,2-dihydropyridin-3-yl)methyl)-2-isopropyl-2,3-dihydrobenzofuran-5-carboxamide] |
| > 1000 nM | Cc1cc(C)c(CNC(=O)c2cc3c(c(-c4ccc(N5CCNCC5)nc4)c2)OC(C(C)C)C3)c(=O)[nH]1 (centres unmarked) [Example 80, N-((4,6-Dimethyl-2-oxo-1,2-dihydropyridin-3-yl)methyl)-2-isopropyl-7-(6-(piperazin-1-yl)pyridin-3-yl)-2,3-dihydrobenzofuran-5-carboxamide] |
| > 1000 nM | C=C(C)C1(C)Cc2cc(C(=O)NCc3c(C)cc(C)[nH]c3=O)cc(Br)c2O1 (centres unmarked) [Example 82, 7-Bromo-N-((4,6-dimethyl-2-oxo-1,2-dihydropyridin-3-yl)methyl)-2-methyl-2-(prop-1-en-2-yl)-2,3-dihydrobenzofuran-5-carboxamide] |
| 500 to 1000 nM | C=C(C)C1(C)Cc2cc(C(=O)NCc3c(C)cc(C)[nH]c3=O)cc(-c3ccc(OC)nc3)c2O1 (centres unmarked) [Example 83, N-((4,6-dimethyl-2-oxo-1,2-dihydropyridin-3-yl)methyl)-7-(6-methoxypyridin-3-yl)-2-methyl-2-(prop-1-en-2-yl)-2,3-dihydrobenzofuran-5-carboxamide] |
| > 1000 nM | C=CC1COc2cc(C(=O)NCc3c(C)cc(C)[nH]c3=O)cc(Br)c2O1 (centres unmarked) [Example 90, 8-Bromo-N-((4,6-dimethyl-2-oxo-1,2-dihydropyridin-3-yl)methyl)-2-vinyl-2,3-dihydrobenzo[b][1,4]dioxine-6-carboxamide] |
| < 500 nM | CCCc1cc(C)[nH]c(=O)c1CNC(=O)c1cc2c(c(-c3ccc(N4CCN(C(C)C)CC4)nc3)c1)OC(C)(C(C)C)C2 (centres unmarked) [Example 93, 2-Isopropyl-7-(6-(4-isopropylpiperazin-1-yl)pyridin-3-yl)-2-methyl-N-((6-methyl-2-oxo-4-propyl-1,2-dihydropyridin-3-yl)methyl)-2,3-dihydrobenzofuran-5-carboxamide] |

| SMILES | IC50 |
| --- | --- |
| CC1=C(C)Cc2cc(C(=O)NCc3c(C)cc(C)[nH]c3=O)cc(Br)c2OC1 [Example 81, 9-Bromo-N-((4,6-dimethyl-2-oxo-1,2-dihydropyridin-3-yl)methyl)-3,4-dimethyl-2,5-dihydrobenzo[b]oxepine-7-carboxamide] | > 1000 nM |
| CCCc1cc(C)[nH]c(=O)c1CNC(=O)c1cc(Br)c2c(c1)CC(C)=C(C)CO2 [Example 86, 9-Bromo-3,4-dimethyl-N-((6-methyl-2-oxo-4-propyl-1,2-dihydropyridin-3-yl)methyl)-2,5-dihydrobenzo[b]oxepine-7-carboxamide] | > 1000 nM |
| CCC1COc2cc(C(=O)NCc3c(C)cc(C)[nH]c3=O)cc(Br)c2O1 (centres unmarked) [Example 91, 8-Bromo-N-((4,6-dimethyl-2-oxo-1,2-dihydropyridin-3-yl)methyl)-2-ethyl-2,3-dihydrobenzo[b][1,4]dioxine-6-carboxamide] | > 1000 nM |
